# Peptide text beside a SMILES is read from it.
# Columns and labels:
# E. cloacae BAA-1143 = format: cell-based
# Procedure: (§1) MIC denotes the lowest concentration of an antimicrobial agent that can inhibit the growth of bacteria after overnight incubation.
# (§2) Bacteria were grown in their respective media (Table 2 above) overnight at 37° C. or room temperature with constant shaking and then diluted to 10^6 CFU/ml in their respective medium. Stock solutions of peptides at 0.68 mM were prepared in distilled water. Bacteria and peptide were incubated (50 μl: 50 μl) to make the final peptide concentrations (0.68, 3.4, 6.8, 13.7, 34.1, 68.3, 136.5 μM) in a 96-microtitre plate and incubated for 24 h with constant shaking. […] Absorbance at 600 nm was detected every 3 h up to 24 h to obtain the growth curves. The minimal inhibition concentration (MIC) was defined as the lowest concentration of an antimicrobial agent that could inhibit the growth of bacteria after overnight incubation.
# [1] = tested on: Escherichia coli ATCC 10536; format: cell-based
# Procedure: as §1, §2
# E. coli = format: cell-based
# [2] = tested on: Gram positive (S. aureus) and negative (E. coli) bacteria; experiment: Toxicity screen of synthesized shortlisted SCPs against bacteria; format: cell-based; conditions: synthesized peptides
# From the text: Of the remaining SCPs, 1519 (24%) satisfy the CAMP prediction algorithm for AMPs as potential AMPs (FIG. 3). In order to increase the accuracy of prediction, the inventors further limited the shortlisted AMPs to amphipathic and cationic peptides, since they account for the majority of currently known AMPs. There are 430 peptides from the SCP database that satisfied these criteria. To assess the accuracy of the AMP prediction, the inventors synthesized 53 of the shortlisted SCPs and tested their toxicity against both Gram positive (S. aureus) and negative (E. coli) bacteria.
# E. tarda = experiment: Quantitative proteomic analysis of AMP-treated bacteria; format: cell-based; conditions: 6.8 μM, 1 hr
# Procedure: Bacteria with or without AMP treatment for 1 hr at 6.8 μM were washed and lysed in 8 M of urea for 2 hrs. The lysate was then reduced in 10 mM of dithiothreitol (DTT) in 50 mM of ammonium bicarbonate (30 min at room temperature) and alkylated in 50 mM of […] (IAA) in 50 mM of ammonium bio-carbonate (20 min at room temperature). The samples were diluted 8 times with ammonium bicarbonate (50 mM, pH 8.0) so that the final concentration of urea was 1 M, followed by 2 μg of trypsin (Roche, Mannheim, Germany) for digestion. The mixtures were then incubated overnight at 37° C. and dried in a vacuum centrifuge (Eppendorf Concentrator plus). The peptides were dissolved in 20 μl of 0.1% trifluoroacetic acid (TFA), followed by ZipTip (Millipore, Billerica, Mass., USA) purification that was carried out in accordance with the manufacturer's instructions.
# Mass spectrometry (MS) data were collected on an Orbitrap Fusion mass spectrometer coupled on-line with a nanoUPLC EASY-LC-1000 liquid chromatography system (ThermoFisher Scientific™, San Jose, Calif.). The peptides were eluted by using a microcapillary column with 50 cm×75 μm ID, PepMap C18, 2 μm particles (ThermoFisher Scientific™) with 2 to 80% acetonitrile in 0.1% formic acid at a flow rate of ˜350 nL/min for 120 min of gradient. They were ionized through electrospray ionization (positive mode 2.1 kV), and survey scans of peptide precursors from 350 to 1550 m/z were performed at a resolution of 120 K at 200 m/z. Tandem MS was performed by isolation at 1.2 Th with the quadrupole component, fragmentation with normalized collision energy of 35%, and rapid scan MS analysis in the ion trap. The MS2 ion count target was set to 10E4 and the maximum injection time was 250 ms. Only precursors with a charge state of 2-7 were fragmented for the MS2 analysis. The dynamic exclusion duration was set to 60 s with a 10 ppm of low and high mass tolerance around the selected precursor and its isotopes. The instrument was run in data dependent mode by using Orbitrap and an ion trap with […] cycles.
# The raw data were analyzed by using Proteome Discoverer (Version 1.4.0.288. Thermo Fisher Scientific). The MS/MS spectra were searched with the Mascot search engine against the NCBI bacteria database 2014 (with 29,574 sequence entries). The peptides were generated from a Lys-C and tryptic digestion and the precursor mass tolerance was set as 25 ppm, and 0.6 Da for fragment mass tolerances. The oxidation of methionine and deamidation of N, Q were set as the dynamic modification, and the carbamidomethylation of cysteine-C as the static modification. The peptide spectral matches (PSMs) were validated by using a percolator based on q-values at a 1% false discovery rate (FDR). For protein identification, a high-confidence database search with a peptide target FDR (strict) of 0.1%, and target FDR (relaxed) 0.5% and ranked 1 peptides were used for peptide filtering. Identified peptides were grouped into individual protein clusters by scaffolding.
# Peptide quantitation was carried out by using Progenesis LC-MS (version 4.1, Nonlinear) and as described in Babaei, F. et al. J. Proteome Res. Eversion, (2013). […] Following a statistical analysis, processing was carried out by using transformed “log-like” […] calculations of all the detected features. The total cumulative abundance was calculated by summing the abundance of all peptides that belonged to a respective protein. […]
# [3] = Toxicity in adult Medaka fish, intraperitoneal injection; format: in vivo; conditions: intraperitoneally injected with 1 μg, up to 14 days
# Procedure: FIG. 11A is a plot showing the effect of Peptide A on viability of cultured mammalian cells, incubated for 48 h in the presence of Peptide A at different concentrations (μg/ml), as determined by MTT assay. Cell viability represented as peptide treated cell numbers over medium-only control. Statistically significant difference as compared to controls (*: p<0.05, **: p<0.01, n=4). FIG. 11B is a plot showing the ability of Peptide A to protect medaka from lethal challenge of E. tarda ([…]). Medaka was injected with 1 μl of Peptide A (0.68 mM), with 1 μl of E. tarda (10^7 CFU/ml) and Peptide A (0.68 mM) mixture, or with E. tarda alone (1 μl of E. tarda:10^7 CFU/ml). […] 20 fish per group. Log-rank (Mantel-Cox) test was applied for the comparison of survival curves (**: p<0.01).
# The efficacy of the synthesized AMP to protect medaka against infection was characterized using host resistance assays with intraperitoneal (i.p.) injection of bacteria using a micro-injection machine (PV820 Pneumatic PicoPump). […] The number of dead fish was counted on a daily basis until two weeks after the injections.
compound,measurement,setting,value
"CC[C@H](C)[C@H](N)C(=O)N[C@@H](CCCNC(=N)N)C(=O)N[C@H](C(=O)N[C@H](C(=O)N[C@@H](CC(C)C)C(=O)N[C@@H](CCCNC(=N)N)C(=O)N[C@@H](C)C(=O)N[C@@H](CCC(N)=O)C(=O)NCC(=O)N[C@@H](C)C(=O)N[C@@H](CC(C)C)C(=O)N[C@@H](CCCCN)C(=O)N[C@H](C(=O)O)[C@@H](C)CC)[C@@H](C)CC)[C@@H](C)CC [Peptide A, IRIILRAQGALKI] (H-IRIILRAQGALKI-OH; N-terminus and C-terminus assumed)",MICs,E. cloacae BAA-1143,21.8 µM
same,MICs,[1],3.4 µM
same,MIC for E. coli,E. coli,3.4 µM
same,toxicity / antimicrobial activity against bacteria,[2],demonstrated toxicity against both Gram positive and negative bacteria
same,"expression of CPX two component pathway proteins DsbC, PpiA and FkpA",E. tarda,down-regulated
same,"expression of DegQ, RpsO and YfiO (downstream proteins of the RpoE pathway)",E. tarda,up-regulation
same,"expression of Peptidyl-prolyl isomerase family members PpiA, PpiB, FkpA and SurA",E. tarda,highly suppressed
same,"expression of proteins involved in outer membrane assembly, peptidoglycan synthesis, and metal ion binding",E. tarda,induced
same,proteins differentially expressed (at least one-fold difference) of 251 high confidence proteins,E. tarda,74
same,adverse effect,[3],no adverse effect

# From patent US11065296B2, “Antimicrobial peptide, its analog and use” (City University of Hong Kong, priority 2018, dated 2021)
